Laboratory results published in ChEMBL document CHEMBL1140670, “Synthesis and evaluation of a phosphonate analogue of the soluble guanylate cyclase activator YC-1” (Bioorg Med Chem Lett, 2007).

Experiments:
[1] = Activation of sGC heme complex expressed in Sf9 cells at 150 uM relative to control; conditions: Homo sapiens
[2] = Activation of sGC heme complex expressed in Sf9 cells at 150 uM in presence of nitric oxide relative to control; conditions: Homo sapiens
[3] = Activation of sGC heme complex expressed in Sf9 cells at 150 uM in presence of carbon monoxide relative to control; conditions: Homo sapiens
[4] = Activation of sGC heme complex expressed in Sf9 cells at 800 uM in presence of carbon monoxide relative to control; conditions: Homo sapiens
[5] = Activation of sGC heme complex expressed in Sf9 cells at 800 uM in presence of nitric oxide relative to control; conditions: Homo sapiens
[6] = Aqueous solubility of the compound; format: physicochemical
[7] = Activation of sGC heme complex expressed in Sf9 cells at 800 uM relative to control; conditions: Homo sapiens

solubility [6] [µM] | Compound | Activity [1] | Activity [2] | Activity [3] | Activity [4] | Activity [5] | Activity [7]
– | OCc1ccc(-c2nn(Cc3ccccc3)c3ccccc23)o1 | 6.4 | 270 | 87 | – | – | –
> 800 | O=P(O)(O)Cc1ccc(-c2nn(Cc3ccccc3)c3ccccc23)o1 | 5.2 | 38 | 16 | 1.2 | 10 | 1.4
